This is an account of results in patent US11590139B2, “Substituted aminopurine compounds, compositions thereof, and methods of treatment therewith” (Signal Pharmaceuticals, LLC, priority 2014, dated 2023).

SMILES strings stand for the structures. Bounds are passed on as bounds.

The first test concerns Lox-IMVI melanoma cell line. Description: Lox-IMVI anti-proliferative assay (growth inhibition, Cell Titer-Glo). In kind it is cell-based, human. To be noted: Homo sapiens; IC50 activity level in the cell-based Lox-IMVI anti-proliferative assay; read-out: Activity. An outline of the steps: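 Viability read by ATP luminescence (Cell Titer-Glo) at t0 and after 72 h at 37 °C, 5% CO2, with normalisation to DMSO-treated cells. Compound tested at 0.5 nM–10 μM in 3-fold, 10-point series (0.2% DMSO final) on Lox-IMVI in RPMI+10% FBS; IC50 by 4-parameter sigmoidal fit.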
(ATP-based viability assays read luminescence as a measure of living cells.)
With `C[C@@H]1CC[C@@H](Nc2ncc3nc(Nc4c(F)cccc4Cl)n([C@H]4CC[C@@H](C(N)=O)CC4)c3n2)C[C@H]1O` [Example 342, (1S,4s)-4-(8-(2-chloro-6-fluorophenylamino)-2-((1R,3R,4R)-3-hydroxy-4-methylcyclohexylamino)-9H-purin-9-yl)cyclohexanecarboxamide], the IC50 is over 1000 nM. With `NC(=O)[C@H]1CC[C@@H](n2c(Nc3c(F)cc(Cl)cc3F)nc3cnc(NC4CC5(COC5)C4)nc32)CC1` [Example 176, (1s,4s)-4-(2-(2-oxaspiro[3.3]heptan-6-ylamino)-8-(4-chloro-2,6-difluorophenylamino)-9H-purin-9-yl)cyclohexanecarboxamide], the IC50 is over 1000 nM.

Regarding `NC(=O)[C@H]1CC[C@@H](n2c(Nc3ccc(Cl)c(F)c3F)nc3cnc(N[C@H]4C[C@@H](O)C4)nc32)CC1` [Example 310, (1s,4s)-4-(8-(4-chloro-2,3-difluorophenylamino)-2-((1s,3s)-3-hydroxycyclobutylamino)-9H-purin-9-yl)cyclohexanecarboxamide], the IC50 is over 1000 nM. Consider `NC(=O)[C@H]1CC[C@@H](n2c(Nc3c(Cl)cc(Cl)cc3Cl)nc3cnc(N[C@H]4CCC[C@@H]4O)nc32)CC1` [Example 270, (1R,4s)-4-(2-((1S,2S)-2-hydroxycyclopentylamino)-8-(2,4,6-trichlorophenylamino)-9H-purin-9-yl)cyclohexanecarboxamide], for which the IC50 is over 1000 nM. The same measure, in the same setting: in the case of `C[C@H](CO)Nc1ncc2nc(Nc3c(Cl)cc(F)cc3Cl)n([C@H]3CC[C@@H](C(N)=O)CC3)c2n1` [Example 131, (1S,4s)-4-(8-(2,6-dichloro-4-fluorophenylamino)-2-((R)-1-hydroxypropan-2-ylamino)-9H-purin-9-yl)cyclohexanecarboxamide] it was over 1000 nM. Still for that read-out and setting: in the case of `NC(=O)[C@H]1CC[C@@H](n2c(Nc3c(F)cc(Cl)cc3F)nc3cnc(N[C@H]4CCCOC4)nc32)CC1` [Example 203, (1R,4s)-4-(8-(4-chloro-2,6-difluorophenylamino)-2-((S)-tetrahydro-2H-pyran-3-ylamino)-9H-purin-9-yl)cyclohexanecarboxamide] it was over 1000 nM. Take `NC(=O)[C@H]1CC[C@@H](n2c(Nc3c(Cl)cc(Cl)cc3Cl)nc3cnc(NC4COCC4O)nc32)CC1` (stereo partly drawn) [Example 181, (1s,4s)-4-(2-(4-hydroxytetrahydrofuran-3-ylamino)-8-(2,4,6-trichlorophenylamino)-9H-purin-9-yl)cyclohexanecarboxamide]: the IC50 is 500 to 1000 nM. In the case of `NC(=O)[C@H]1CC[C@@H](n2c(Nc3c(F)ccc(F)c3F)nc3cnc(NC4CCC(F)(F)CC4)nc32)CC1` [Example 239, (1s,4s)-4-(2-(4,4-difluorocyclohexylamino)-8-(2,3,6-trifluorophenylamino)-9H-purin-9-yl)cyclohexanecarboxamide], the IC50 lay within 500 to 1000 nM.

On to `C[C@@H](CO)Nc1ncc2nc(Nc3c(F)cc(F)cc3Cl)n([C@H]3CC[C@@H](C(N)=O)CC3)c2n1` [Example 136, (1R,4s)-4-(8-(2-chloro-4,6-difluorophenylamino)-2-((S)-1-hydroxypropan-2-ylamino)-9H-purin-9-yl)cyclohexanecarboxamide], for which the IC50 fell in the range of 500 to 1000 nM. Regarding `NC(=O)[C@H]1CC[C@@H](n2c(Nc3c(F)cc(Cl)cc3F)nc3cnc(NC4CCC4)nc32)CC1` [Example 129, (1s,4s)-4-(8-(4-chloro-2,6-difluorophenylamino)-2-(cyclobutylamino)-9H-purin-9-yl)cyclohexanecarboxamide], the IC50 is over 1000 nM. For `Cc1ccc(Nc2nc3cnc(NC4CCOCC4)nc3n2[C@H]2CC[C@@H](C(N)=O)CC2)c(Cl)c1F` [Example 84, (1s,4s)-4-(8-(2-chloro-3-fluoro-4-methylphenylamino)-2-(tetrahydro-2H-pyran-4-ylamino)-9H-purin-9-yl)cyclohexanecarboxamide], the IC50 is 500 to 1000 nM.

Take `NC(=O)[C@H]1CC[C@@H](n2c(Nc3c(F)ccc(F)c3F)nc3cnc(N[C@@H]4CCC[C@H]4O)nc32)CC1` [Example 260, (1S,4s)-4-(2-((1R,2R)-2-hydroxycyclopentylamino)-8-(2,3,6-trifluorophenylamino)-9H-purin-9-yl)cyclohexanecarboxamide]: the IC50 was over 1000 nM.

The test is the same for the next values; noted with them: Homo sapiens; Lox-IMVI anti-proliferative assay, IC50 activity level; read-out: Activity.
In the case of `NC(=O)[C@H]1CC[C@@H](n2c(Nc3c(F)cc(F)cc3Cl)nc3cnc(N[C@@H]4CCC(F)(F)C4)nc32)CC1` [Example 590, (1S,4s)-4-(8-(2-chloro-4,6-difluorophenylamino)-2-((R)-3,3-difluorocyclopentylamino)-9H-purin-9-yl)cyclohexanecarboxamide], the IC50 was under 250 nM.

`C[C@H]1COCC[C@H]1Nc1ncc2nc(Nc3c(Cl)cc(Cl)cc3Cl)n([C@H]3CC[C@@H](C(N)=O)CC3)c2n1` [Example 501, (1S,4s)-4-(2-((3R,4R)-3-methyltetrahydro-2H-pyran-4-ylamino)-8-(2,4,6-trichlorophenylamino)-9H-purin-9-yl)cyclohexanecarboxamide]: the IC50 lay in the range of 250 to 500 nM.

As to `NC(=O)[C@H]1CC[C@@H](n2c(Nc3c(Cl)cc(Cl)cc3Cl)nc3cnc(NC4CCCOCC4)nc32)CC1` (stereo partly drawn) [Example 539, (1s,4s)-4-(2-(oxepan-4-ylamino)-8-(2,4,6-trichlorophenylamino)-9H-purin-9-yl)cyclohexanecarboxamide], the IC50 is under 250 nM. Still for that read-out and setting: as for `C[C@H]1COCC[C@@H]1Nc1ncc2nc(Nc3c(F)cc(Cl)cc3Cl)n([C@H]3CC[C@@H](C(N)=O)CC3)c2n1` [Example 504, (1R,4s)-4-(8-(2,4-dichloro-6-fluorophenylamino)-2-((3R,4S)-3-methyltetrahydro-2H-pyran-4-ylamino)-9H-purin-9-yl)cyclohexanecarboxamide], the figure is 500 to 1000 nM; as for `N#Cc1cc(F)c(Nc2nc3cnc(NC4CC(F)(F)C4)nc3n2[C@H]2CC[C@@H](C(N)=O)CC2)c(F)c1` [Example 401, (1s,4s)-4-(8-(4-cyano-2,6-difluorophenylamino)-2-(3,3-difluorocyclobutylamino)-9H-purin-9-yl)cyclohexanecarboxamide], over 1000 nM. Same read-out and setting: in the case of `N#Cc1cc(F)c(Nc2nc3cnc(N[C@H]4CCCC[C@H](O)C4)nc3n2[C@H]2CC[C@@H](C(N)=O)CC2)c(Cl)c1` [Example 448, (1R,4s)-4-(8-(2-chloro-4-cyano-6-fluorophenylamino)-2-((1S,3S)-3-hydroxycycloheptylamino)-9H-purin-9-yl)cyclohexanecarboxamide] it was over 1000 nM; in that of `NC(=O)[C@H]1CC[C@@H](n2c(Nc3c(Cl)cc(Cl)cc3Cl)nc3cnc(NCC(F)(F)CO)nc32)CC1` [Example 450, (1s,4s)-4-(2-(2,2-difluoro-3-hydroxypropylamino)-8-(2,4,6-trichlorophenylamino)-9H-purin-9-yl)cyclohexanecarboxamide], over 1000 nM.

The test is the same for the next values; noted with them: Homo sapiens; Lox-IMVI melanoma cell line, anti-proliferative assay; read-out: Activity (IC50 activity level).
As to `C[C@@H](CO)Nc1ncc2nc(Nc3ccc(C#N)c(Cl)c3Cl)n([C@H]3CC[C@@H](C(N)=O)CC3)c2n1` [Example 694, (1R,4s)-4-(8-(2,3-dichloro-4-cyanophenylamino)-2-((S)-1-hydroxypropan-2-ylamino)-9H-purin-9-yl)cyclohexanecarboxamide], the IC50 is over 1000 nM.

Regarding `N#Cc1cc(Cl)c(Nc2nc3cnc(NC[C@@H]4CCCC[C@H]4O)nc3n2[C@H]2CC[C@@H](C(N)=O)CC2)c(Cl)c1` [Example 665, (1R,4s)-4-(8-(2,6-dichloro-4-cyanophenylamino)-2-(((1S,2R)-2-hydroxycyclohexyl)methylamino)-9H-purin-9-yl)cyclohexanecarboxamide], the IC50 is over 1000 nM. For `CC(C)N1CCC[C@@H](Nc2ncc3nc(Nc4c(Cl)cc(Cl)cc4Cl)n([C@H]4CC[C@@H](C(N)=O)CC4)c3n2)C1` [Example 738, (1S,4s)-4-(2-((R)-1-isopropylpiperidin-3-ylamino)-8-(2,4,6-trichlorophenylamino)-9H-purin-9-yl)cyclohexanecarboxamide], the IC50 was over 1000 nM. The same measure, in the same setting: in the case of `NC(=O)[C@H]1CC[C@@H](n2c(Nc3c(F)cc(Cl)cc3F)nc3cnc(NC[C@@H]4CCCC[C@H]4O)nc32)CC1` [Example 663, (1R,4s)-4-(8-(4-chloro-2,6-difluorophenylamino)-2-(((1S,2R)-2-hydroxycyclohexyl)methylamino)-9H-purin-9-yl)cyclohexanecarboxamide] it was over 1000 nM. Same read-out and setting: in the case of `CC(C)OC(=O)N1CCC[C@@H](Nc2ncc3nc(Nc4c(F)cc(F)cc4F)n([C@H]4CC[C@@H](C(N)=O)CC4)c3n2)C1` [Example 772, (R)-isopropyl 3-(9-((1s,4S)-4-carbamoylcyclohexyl)-8-(2,4,6-trifluorophenylamino)-9H-purin-2-ylamino)piperidine-1-carboxylate] it was over 1000 nM; in that of `C[C@]1(C(N)=O)CC[C@@H](n2c(Nc3c(F)cc(C#N)cc3Cl)nc3cnc(NC4CCC4)nc32)CC1` [Example 600, (1s,4s)-4-(8-(2-chloro-4-cyano-6-fluorophenylamino)-2-(cyclobutylamino)-9H-purin-9-yl)-1-methylcyclohexanecarboxamide], under 250 nM.

For the compound `N#Cc1cc(Cl)c(Nc2nc3cnc(N[C@@H]4CCC(O)C4)nc3n2[C@H]2CC[C@@H](C(N)=O)CC2)c(Cl)c1` (stereo partly drawn) [Example 683, (1S,4s)-4-(8-(2,6-dichloro-4-cyanophenylamino)-2-((1R,3R)-3-hydroxycyclopentylamino)-9H-purin-9-yl)cyclohexanecarboxamide], the IC50 is under 250 nM. As to `C[C@]1(C(N)=O)CC[C@@H](n2c(Nc3c(Cl)cc(F)cc3Cl)nc3cnc(N[C@H]4CCC[C@@H](O)C4)nc32)CC1` [Example 631, (1R,4s)-4-(8-(2,6-dichloro-4-fluorophenylamino)-2-((1S,3R)-3-hydroxycyclohexylamino)-9H-purin-9-yl)-1-methylcyclohexanecarboxamide], the IC50 was in the range of 500 to 1000 nM.
